Like-named read-outs stand apart in the source and are kept apart here.

Test [1] relates to platelets. Kind of test: Platelet activation assay: cell surface expression of P-selectin by immunofluorescence. The format is cell-based, human. The settings on record: 0.125 μM thrombin, 10 mins, 37° C.; mean ± standard error, >70 platelets. The source says: (§1) Platelet activation level was quantified via cell surface expression of P-selectin utilizing immunohistochemical staining (Hsulin, S. C., et al., A Platelet Membrane-Protein Expressed during Platelet Activation and Secretion-Studies Using a Monoclonal Antibody Specific for Thrombin-Activated Platelets. Journal of Biological Chemistry, 1984. 259(14): p. 9121-9126; Berman, C. L., et al., A Platelet Alpha Granule Membrane-Protein That Is Associated with the Plasma-Membrane after Activation-Characterization and Subcellular-Localization of Platelet Activation Dependent Granule-External Membrane-Protein. Journal of Clinical Investigation, 1986. 78(1): p. […] Platelets were paraformaldehyde fixed (3%, 20 mins) rinsed and incubated (30 min., 37° C.) with FITC Mouse Anti-Human CD62P (50 μl, 1:5 (v/v) dilution in PBS, BD Biosciences, CA) and imaged using fluorescence microscopy. Fluorescence intensity levels were measured following background subtraction. […] Activation of the positive and negative controls was also quantified via the chemically modified prothrombin-based platelet activation state (PAS) assay (Jesty, J. and D. Bluestein, Acetylated prothrombin as a substrate in the measurement of the procoagulant activity of platelets: Elimination of the feedback activation of platelets by thrombin. Analytical Biochemistry, 1999. 272(1): p. 64-70.).

Test [2] concerns platelets. Kind of test: Chemically modified prothrombin-based platelet activation state (PAS) assay. In kind it is cell-based, human. The settings on record: 0.125 μM thrombin, 10 mins, 37° C.
Description: as §1

Test [3] deals with platelets. The settings on record: for Platelet deformation along the axis of maximum extension, normalized to the original length: platelets treated with 0.4% paraformaldehyde, 1 MHz.
Description: Gel filtered platelets were prepared as previously described, from whole blood drawn from aspirin and non-steroidal anti-inflammatory medication free volunteers providing informed consent (Sheriff, J., et al., High-shear stress sensitizes platelets to subsequent low-shear conditions. Ann Biomed Eng, 2010. 38(4): p. 1442-50).
A 127 μm-thick hollow polymer spacer was placed on top of the chip to create a fluid chamber and the chip was covered with a coverslip for microscopic observation. All chip glass surfaces were coated with Sigmacote (Sigma-Aldrich, MO, USA) and rinsed with D.I. water to prevent surface-induced platelet activation.
To visualize platelets they were first exposed to Alexa Fluor 594 conjugated wheat germ agglutinin (1 μg/mL, 10 mins, 37° C., Invitrogen, CA). Platelets were then diluted 100-200 fold (v/v) in isotonic buffer (Pommer, M. S., et al., Dielectrophoretic separation of platelets from diluted whole blood in microfluidic channels. Electrophoresis, 2008. 29(6): p. 1213-8) containing 8.5% w/v sucrose and 0.3% w/v dextrose until the medium conductivity reached ˜1500/cm. as measured by a Jenway 4520 conductivity meter (Jenway, Staffordshire, UK). 50 μl of the diluted platelets sample were pipetted into the fluid chamber of the microelectrode chip. An alternating electric current in a sine wave pattern was generated across the microelectrodes using a function generator (332220A, Agilent, CA,) connected to a wideband power amplifier (7600M, Krohn-hite, MA). The amplitude of applied voltage was monitor via digital oscilloscope (GDS-1102, GW Instek, CA). The sample chip was imaged via fluorescence microscopy (Eclipse E800, 100× oil, Nikon, N.Y.), images were captured via CCD (Sensicam 12bt CCD camera, Cooke Corporation, MI), processed and quantified using NIH Image J software.
In the studies, platelet deformations under sequential increase of applied voltage, from 0 to 90Vpk-pk at 15V steps, were measured at a frequency of 1 MHz and the result is shown in FIG. 4A. […] Images of deformed platelets were captured in a duration ˜5s.

For thrombin, the “P-selectin expression, averaged fluorescence intensity level” value in test [1] is listed as 1526.15±75.04. Also, the “Platelet activation level (PAS assay)” value in test [2] came to 24.7%.

For the substance paraformaldehyde, in test [3] (0.4% paraformaldehyde, 90Vpk-pk applied voltage, p-value=0.0002), the “Decrease in deformation compared to untreated platelets” value turned out to be 2.75 times. For the same substance, in test [3] (platelets treated by 0.4% paraformaldehyde, stress from Maxwell stress tensor simulation), the “Young's modulus of platelets (slope of linear fitted stress-deformation curve)” value is 8.5+/−1.5 kPa. The entries for the “Platelet deformation along the axis of maximum extension, normalized to the original length” value in test [3] (applied voltage 15 V) and in test [3] (applied voltage 90 V) were 0.73±1.33% and 4.90±1.98%, respectively.
